Data from PubChem BioAssay (NCI).
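Cultured in 96-well plates, cells were exposed to test compound for 48 hours across five concentrations. GI50: concentration for 50% inhibition of growth. The concentration for full growth arrest is given as TGI.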

Experiments:
Assay in all cases: NCI-60 cell line screen, 48 h
[1] = test system: SNB-19 CNS
[2] = test system: SK-MEL-5 melanoma
[3] = test system: U251 CNS
[4] = test system: SK-MEL-28 melanoma
[5] = test system: NCI-H522 lung
[6] = test system: BT-549 breast
[7] = test system: DU-145 prostate

SMILES | TGI [1] [µM] | TGI [2] [µM] | TGI [3] [µM] | TGI [4] [µM] | TGI [5] [µM] | TGI [6] [µM] | GI50 [7] [µM] | TGI [7] [µM] | GI50 [1] [µM] | GI50 [2] [µM] | GI50 [3] [µM] | GI50 [4] [µM] | GI50 [5] [µM] | GI50 [6] [µM]
NNc1nc2ccccc2c(=O)n1NC(=O)C(=O)Nc1cccc(C(F)(F)F)c1 | > 100 | > 100 | > 100 | > 100 | > 100 | > 100 |  |  |  |  |  |  |  | 
Cn1c(=O)c(Oc2ccccc2F)cc2cnc(NC3CCOCC3)nc21 | > 25 | > 25 | > 25 | > 25 | > 25 | > 25 | > 25 | > 25 | > 25 | > 25 | > 25 | > 25 | > 25 | > 25
N=C(N=C(N)N)N1CCN(c2ccncc2)CC1 | > 1000 | > 1000 |  | > 1000 | > 1000 | > 1000 | > 1000 | > 1000 | > 1000 | > 1000 |  | > 1000 | > 1000 | > 1000
CCOC(=O)C(=Cc1ccccc1[N+](=O)[O-])C(=O)OCC | 16.4 | 2.66 | 13.1 | 9.59 | 4.63 | 17.3 | 3.22 | 12 | 4.27 | 1.33 | 3.65 | 2.93 | 1.86 | 5.28
CC(=O)O[C@H]1CC[C@@]2(C)C(=CC[C@H]3[C@@H]4C/C(=C\c5cccc(OCCN6CCOCC6)c5)[C@H](OC(C)=O)[C@@]4(C)CC[C@@H]32)C1 | 29.3 | 22.3 | 16.6 | 17.6 | 27.5 |  | 23.3 | > 100 | 9.13 | 10.5 | 4.58 | 5.48 | 12.9 | 
COCCOC(=O)NC(=O)Nc1ccc(/C(=N/O)c2ccc(Cl)cc2)cc1 | > 100 | 2.85 | 33 | 48 | 5.58 | 39.6 | 0.121 | 20.4 | 0.535 | 0.0817 | 0.12 | 11.5 | 0.123 | 0.58
O=S(=O)(NCC1CCC(CNc2ccc(Cl)cc2)CC1)c1ccc(-c2ccccc2)cc1 (centres undefined) | > 50 | > 50 | > 50 | > 50 | > 50 | > 50 | > 50 | > 50 | > 50 | 15.9 | 23.5 | > 50 | > 50 | > 50
Cc1cc(C)c(C[N+](C)(C)C)c(C)c1C | > 64.5 | 2.82 | 34.7 | 23.5 | 2.61 | 7.36 | 0.347 | 11.4 | 0.351 | 0.209 | 0.307 | 0.365 | 0.208 | 0.619
CC(C)c1ccc(C(=O)Nc2sc3c(c2C#N)CCC(=O)C3)cc1 | > 100 | 2.52 | > 100 | 9.84 | 2.16 | 3.13 | 4.26 | > 100 | 0.409 | 0.979 | 0.338 | 0.754 | 0.248 | 0.306
